Laboratory results: patent US20240165129A1, “METHODS OF TREATING PAIN AND DEPRESSION” (priority 2022, published 2024)
Read-outs that look alike come from different tables or passages of the source.

Assays:
[1] = tested on: ASIC currents (ASIC1a-like) in cortical neurons; assay: Patch-clamp recording of ASIC (ASIC1a-like) currents in primary cultured mouse cortical neurons; format: cell-based
[2] = target: T1, homomeric ASIC1a channels (Homo sapiens, UniProt P78348); format: cell-based
T1 construct: expressed in transfected cells
T1 sequence (P78348 1-528): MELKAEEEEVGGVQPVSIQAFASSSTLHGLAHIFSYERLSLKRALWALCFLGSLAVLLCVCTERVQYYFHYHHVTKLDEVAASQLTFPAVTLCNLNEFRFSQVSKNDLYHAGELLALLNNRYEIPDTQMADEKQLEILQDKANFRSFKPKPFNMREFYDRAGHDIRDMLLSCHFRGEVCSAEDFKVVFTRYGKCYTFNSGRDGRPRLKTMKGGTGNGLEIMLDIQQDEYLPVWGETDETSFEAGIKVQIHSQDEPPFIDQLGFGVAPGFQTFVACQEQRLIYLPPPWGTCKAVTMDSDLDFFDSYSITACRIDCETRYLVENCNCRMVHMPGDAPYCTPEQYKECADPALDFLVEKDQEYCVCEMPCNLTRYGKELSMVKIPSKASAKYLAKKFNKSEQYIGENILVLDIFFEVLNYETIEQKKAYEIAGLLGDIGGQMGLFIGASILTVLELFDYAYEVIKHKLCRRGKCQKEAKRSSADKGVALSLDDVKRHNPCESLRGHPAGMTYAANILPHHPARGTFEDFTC

[3] = tested on: primary cultured mouse cortical neurons; conditions: pH 6.0, n=7-8
[4] = target: T2, heteromeric ASIC1a/2a channels (Mus musculus, UniProt Q6NXK8+Q925H0); assay: ASIC currents in cortical neurons in the presence of PcTx1 (heteromeric channels); conditions: Triol 10 μM
T2 sequence (Q6NXK8 1-526): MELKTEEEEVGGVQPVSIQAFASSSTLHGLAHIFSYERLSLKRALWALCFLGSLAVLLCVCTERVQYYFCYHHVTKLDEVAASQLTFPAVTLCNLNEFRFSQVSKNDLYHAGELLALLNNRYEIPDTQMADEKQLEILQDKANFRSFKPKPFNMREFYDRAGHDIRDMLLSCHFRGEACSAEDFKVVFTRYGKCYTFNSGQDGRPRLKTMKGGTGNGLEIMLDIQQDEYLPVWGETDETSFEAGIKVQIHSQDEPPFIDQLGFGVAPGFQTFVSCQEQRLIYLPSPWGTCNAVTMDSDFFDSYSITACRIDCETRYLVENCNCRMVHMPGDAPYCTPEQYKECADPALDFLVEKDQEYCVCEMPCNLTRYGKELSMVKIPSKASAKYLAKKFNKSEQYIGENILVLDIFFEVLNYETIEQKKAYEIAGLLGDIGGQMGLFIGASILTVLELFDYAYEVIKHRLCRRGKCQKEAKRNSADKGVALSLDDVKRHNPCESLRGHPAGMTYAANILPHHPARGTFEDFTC
T2 sequence (Q925H0 1-512): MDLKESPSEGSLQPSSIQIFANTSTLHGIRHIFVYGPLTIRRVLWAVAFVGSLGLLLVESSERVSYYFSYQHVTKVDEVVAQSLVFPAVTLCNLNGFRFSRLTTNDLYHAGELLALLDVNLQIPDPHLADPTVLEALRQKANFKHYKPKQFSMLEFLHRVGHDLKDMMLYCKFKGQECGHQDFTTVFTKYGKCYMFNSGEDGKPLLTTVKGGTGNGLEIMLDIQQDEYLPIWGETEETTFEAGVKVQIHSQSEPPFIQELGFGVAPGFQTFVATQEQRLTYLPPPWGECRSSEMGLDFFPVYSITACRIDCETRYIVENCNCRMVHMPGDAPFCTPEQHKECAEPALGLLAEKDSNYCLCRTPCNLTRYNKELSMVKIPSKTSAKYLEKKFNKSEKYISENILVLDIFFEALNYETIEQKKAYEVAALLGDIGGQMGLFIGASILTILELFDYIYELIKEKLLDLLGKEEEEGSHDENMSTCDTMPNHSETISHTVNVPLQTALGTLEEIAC
Procedure: Mouse cortical neurons were cultured. Pregnant Swiss mice were purchased from Charles River. The use of mice for neuronal cultures was approved by the Institutional Animal Care and Use Committee of Morehouse School of Medicine. Briefly, the brains of fetuses (embryonic day 16) were removed quickly from anesthetized pregnant mice and placed in cold Ca2+/Mg2+-free PBS. Cerebral cortices were dissected and incubated with 0.05% trypsin-EDTA for 10 min at 37° C., followed by trituration. Cells were plated in poly-L-ornithine-coated culture dishes. Cells were initially cultured in minimal essential medium (MEM) with 10% fetal bovine serum (FBS), 10% horse serum, and 25 mM glucose and maintained at 37° C. in a humidified 5% CO2 atmosphere incubator for 24 h. After that, the culture medium was completely replaced by Neurobasal medium supplemented with B-27 (Invitrogen) and then changed twice a week. Neurons were used for the experiments between days 10 and 14.
ASIC currents were recorded using patch-clamp techniques. Pipette solution contained (mM): 140 CsF, 1 CaCl2, 2 MgCl2, 11 EGTA, 2 tetraethylammonium chloride, 10 HEPES and 4 MgATP, pH 7.3 adjusted with CsOH, 290-300 mOsm. […] Currents were recorded with Axopatch 200B amplifier, filtered at 2 kHz, and digitized at 5 kHz using Digidata 1332A. […]

homomeric ASIC1β = target: T3, homomeric ASIC1β (Rattus norvegicus, UniProt P55926); assay: Patch-clamp recording of ASIC1β currents in CHO cells with transient expression; conditions: 10 μM, pH drop 7.4 to 6.0, n=4-5
T3 sequence (P55926 1-559 isoform P55926-3): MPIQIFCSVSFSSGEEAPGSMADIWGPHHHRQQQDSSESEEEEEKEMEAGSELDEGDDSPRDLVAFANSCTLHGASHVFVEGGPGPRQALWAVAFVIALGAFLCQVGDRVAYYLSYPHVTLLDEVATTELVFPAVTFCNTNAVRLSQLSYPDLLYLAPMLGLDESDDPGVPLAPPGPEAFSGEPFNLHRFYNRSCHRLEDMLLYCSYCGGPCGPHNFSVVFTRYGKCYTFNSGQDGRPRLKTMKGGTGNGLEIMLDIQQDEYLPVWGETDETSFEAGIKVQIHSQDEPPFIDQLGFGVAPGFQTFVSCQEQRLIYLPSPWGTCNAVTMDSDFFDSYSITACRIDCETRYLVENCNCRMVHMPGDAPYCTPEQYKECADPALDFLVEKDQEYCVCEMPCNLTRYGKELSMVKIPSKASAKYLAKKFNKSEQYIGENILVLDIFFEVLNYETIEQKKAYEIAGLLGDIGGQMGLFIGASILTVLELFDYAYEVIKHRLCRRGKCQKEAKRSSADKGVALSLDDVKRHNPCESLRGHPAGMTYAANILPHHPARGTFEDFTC
Procedure: Chinese hamster ovary (CHO) cells were cultured in F12-K medium (Invitrogen) plus 10% fetal bovine serum, 50 units/nal penicillin, and 50 μg/m1 streptomycin. At ˜50% confluence, CHO cells were co-transfected with cDNAs for rat ASIC1β, ASIC2a, or ASIC3, and that for GFP. GFP-positive cells were used for electrophysiological recordings 24-72 h after transient transfection.
ASIC currents were recorded using patch-clamp techniques. Pipette solution contained (mM): 140 CsF, 1 CaCl2, 2 MgCl2, 11 EGTA, 2 tetraethylammonium chloride, 10 HEPES and 4 MgATP, pH 7.3 adjusted with CsOH, 290-300 mOsm. Extracellular Fluid (ECF) contained (mM): 140 NaCl, 5.4 KCl, 2 CaCl2, 1 MgCl2, 10 glucose, and 10 HEPES (320-330 mOsm). A multi-barrel perfusion system (SF-77 Warner Instruments, Hamden, CT) was used to obtain a rapid exchange of ECFs. Currents were recorded with Axopatch 200B amplifier, filtered at 2 kHz, and digitized at 5 kHz using Digidata 1332A. ASIC currents were induced by rapid perfusion of the cells with acidic ECF for 4 seconds. Unless otherwise stated, cells were clamped at a holding potential of −60 mV. […] Data were excluded for statistical analysis when access resistance was >10 MΩ or leak current was >100 pA.
Therefore, the study used pH 6.0 and 4.5 to activate ASIC1β and ASIC2a currents, respectively. […]

stroke = conditions: in vivo; cited from earlier work
[5] = 10 μM, before and after perfusion for 5 min
[6] = after 30 min washout (data not shown)

SMILES: CC(C)CCC[C@@H](C)[C@H]1CC[C@H]2[C@@H]3C[C@@H](O)[C@@]4(O)C[C@@H](O)CC[C@]4(C)[C@H]3CC[C@]12C [Triol, cholestane-3β, 5α, 6β-triol]
- effect on current-voltage relationship (IV) [1, 5]: does not affect the current-voltage relationship
- shift in the pH dose-response of ASIC peak currents [1, 5]: not a significant shift
- decrease of ASIC currents in cortical neurons ([1]; 10 μM, within 5 min of application/perfusion): ~40%
- reversibility of ASIC current inhibition in cortical neurons [1, 6]: irreversible
- voltage dependence of inhibitory activity ([1]; holding potential −60 mV vs −30 mV): no significant change in the inhibitory activity
- inhibition at 1 µM ([2]; 1 μM Triol, within 5 minutes of application, pH drop 7.4 to 6.0, n=5, read-out: inhibition of ASIC1a currents): ~20%
- inhibition at 10 µM ([2]; 10 μM Triol, within 5 minutes of application, pH drop 7.4 to 6.0, n=5, read-out: inhibition of ASIC1a currents): ~40%
- inhibition at 10 µM ([2]; 10 μM, once/one min, within 5 min of recording, read-out: inhibition of ASIC current, higher stimulatory frequency): ~40%
- inhibition at 10 µM ([2]; 10 μM, once/two min, within 5 min of recording, read-out: inhibition of ASIC1a currents, lower stimulatory frequency): ~20%
- reversibility of ASIC1a inhibition [2, 6]: irreversible
- acid-induced cytotoxicity (LDH release) [3]: significantly decreased
- effect on remaining ASIC currents in the presence of PcTx1 ([4]; PcTx1 40 nM, PcTx-1 sensitive neurons, n=9): further inhibited
- effect on PcTx1 insensitive ASIC currents ([4]; PcTx-1 insensitive neurons (3 of 12 cells)): still inhibit these currents
- effect on ASIC1β currents (homomeric ASIC1β): no significant effect
- therapeutic time window for stroke treatment (stroke): at least 4 h
